Results on 4 compounds are retold here after patent US12596125B2, “Nano-rheological biomarkers for early and improved follow-up of pathologies associated to RBC deformability alteration” (ALCEDIAG, priority 2019, dated 2026).

For one data set, the target named is T1, hemoglobin solutions (Homo sapiens, UniProt P68871+P69905).
T1 construct: The RBC pellet was exposed to 3 freeze-thaw cycles (−80° C. to 37° C.) to lyse RBC membranes; from tissue; host or cells: red blood cells from blood samples (lysate, membranes extracted with CCl4)
T1 sequence (P69905 2-142 limits assumed): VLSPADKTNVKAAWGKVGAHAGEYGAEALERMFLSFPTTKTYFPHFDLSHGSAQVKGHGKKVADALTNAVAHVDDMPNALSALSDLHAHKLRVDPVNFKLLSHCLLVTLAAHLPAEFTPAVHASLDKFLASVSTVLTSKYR
T1 sequence (P68871 2-147 limits assumed): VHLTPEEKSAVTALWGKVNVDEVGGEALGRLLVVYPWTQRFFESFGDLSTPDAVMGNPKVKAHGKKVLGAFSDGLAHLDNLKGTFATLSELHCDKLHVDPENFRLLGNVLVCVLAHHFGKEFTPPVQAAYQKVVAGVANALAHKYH
The data set can be described thus: Emission intensity of rotor in hemoglobin solutions of increasing viscosity. The data set is classed as physicochemical. Conditions: viscosity 3.4-9.2 mPa·s, temperature 17-34 °C. As to the method:
Red blood cells were washed three times in PBS buffer in order to prepare hemoglobin solutions from blood samples. After a final centrifugation at 1200 g for 10 min, all the supernatant was removed. The RBC pellet was exposed to 3 freeze-thaw cycles (−80° C. to 37° C.) to lyse RBC membranes. Membrane residues were then extracted by addition of CCl4 to the lysate (⅓ of the volume), strong agitation and ultra-centrifugation at 10000 g for 15 min. The hemoglobin concentration in the final solution was measured by colorimetry (MAK 115 Hemoglobin Assay Kit from Sigma-Aldrich).
We studied the emission intensity of tDASMP in hemoglobin solutions of increasing viscosity. The temperature of the sample was varied between 17° C. and 34° C.

Data set [1] is described as follows: Sensitivity of rotor fluorescence to pH and ionic strength (NaCl). Conditions: 37 °C, rotor 15 μM; for dependency of fluorescence intensity on NaCl concentration (ionic strength): NaCl 0.1-200 mM, water-glycerol 50%-50%; for dependency of fluorescence intensity on pH: pH 3-8, citric acid/phosphate, water-glycerol 70%-30%. Format: physicochemical. From the text:
(§1) The fluorescent response spectra of the rotors has been measured by varying four parameters • Viscosity, with water-glycerol solutions with increasing relative concentration (see FIGS. 2A-2D); • Electrostatic and ionic perturbations, with increasing NaCl concentration in a water-glycerol solution (50%-50%) (see FIG. 3A)); • pH, with buffered solutions Citric acid/Phosphate pH; 3<pH<8 in a water-glycerol solution (70%-30%) (see FIG. 3B); and • Molecular density and highly interacting (including hydrophobic) environment using a gradient BSA (bovine serum albumin) (see FIG. 4A-4D).
(§2) The pH was assayed from 3 (corresponding to the most acidic zones) to 8. For viscosity, we used literature data agreeing on apparent values in various cellular media, ranging from 1.5 mPa·s in the cytoplasm up to 140 mPa·s in the vesicles. In our studies, the MR concentration was set to 15 μM under the expected toxicity onset [Haidekker (2010a)]. One key remark, as any fluorescent molecule, signal intensity is also a function of its concentration. It is therefore very important to control the concentration of molecular rotor or, if when impossible, to be able to measure the concentration regardless of the viscosity.

Data set [2] in a line: Excitation-emission matrix (spectral response) of molecular rotors. The data set is classed as physicochemical. The method, then: Excitation wavelength in abscissa, emission in ordinates, in nanometer (nm)). The rotors are diluted in a water/glycerol solution at a concentration 15 μM.
FIGS. 9a-9f: Excitation emission matrices of the molecular rotor DASPI, at temperature 25° C., at concentration 3.3 μM in (a) DMSO (η=2 mPa·s), (b) Ethylene glycol (η=13.5 mPa·s), (c) Glycerol (η=945 mPa·s) and (d,e) Hemoglobin in PBS (1000× dilution, different scale, η=1 mPa·s). The Fluorescence EEM of hemoglobin alone (f) was also measured to give evidence that there is no contribution of hemoglobin in the DASPI range of interest. […] In hemoglobin solutions however (d,e), the emission peak value is lower than in DMSO for similar viscosities because of the high absorbance of the solution.
The excitation-emission matrix of these 4 rotors, diluted in a glycerol/water solution (purely viscous fluid), have been measured using a SYNERGY H1 (Hybrid Multi-Mode reader, BioTek).
In a first step, fluorescence Excitation Emisson Matrices (EMMs) of DASPI were measured in selected solvents, at controlled temperature 25·C: DMSO, Ethylene Glycol, Glycerol and hemoglobin/PBS solutions (dilution 1000×). […] The Fluorescence EEM of hemoglobin alone (dilution 1000× in PBS) was also measured in the DASPI range of interest to give evidence that there is no contribution of hemoglobin in this range (f).

The subject of data set [3] is red blood cells (RBCs). As to the kind of experiment: Penetration and localization of molecular rotor in red blood cells by confocal microscopy. Format: cell-based. Conditions: for penetration of the rotor into RBCs: healthy and rigidified RBCs. The method, then: FIG. 12: Bright field image and confocal z-stacks obtained using confocal microscopy (X40 objective, excitation at 488 nm, detection between 542-626 nm) for three healthy RBCs with different orientations in a 1 mM DASPI solution. The z position of the slices is indicated. […] The mean intensity was measured in the depicted color boxes and each data point corresponds to a confocal slice (0.5 μm distance). As a next step towards the rheological characterization of RBCs with MRs, we then imaged a suspension of healthy and artificially rigidified RBCs (by incubation during 10 min in a 1% (v/v) Glutaraldehyde solution in PBS) treated with […]. Healthy and rigidified RBC suspensions were mixed and the resulting suspension was observed using confocal microscopy with an excitation at 488 nm and detection between 546 nm and 626 nm. An image corresponding to the mid-cross section of the RBC after cells have sedimented on the bottom window of the observation chamber is shown in FIG. 6. […] Confocal microscopy allows to measure fluorescence profiles across RBCs. The localization of the DASPI molecular rotor in healthy red blood cells was studied by confocal microscopy. Confocal images were acquired during the slow sedimentation of the RBCs with different orientations in the observation microchannel. […] Beyond the membrane, in the cytosol, the signal from DASPI was homogeneous in the observation plane, regardless of the z-position and orientation of the cell. Confocal microscopy allows us to unambiguously separate the fluorescence response from the membrane and cytosol. In fact, as soon as the upper and lower membranes are out of the depth of field ( 600 nm), they no longer contribute to the field of vision. […] By scanning the different parts of the red blood cells, we measure that the DASPI fluorescence signal is present throughout the whole red blood cell, over a distance which corresponds approximately (given the depth of field) to the typical known sizes of the red blood cell: diameter 8 μm (b), thickness on the edge 3 μm (a), thickness in the biconcave zone 1 μm (a).

The subject of data set [4] is red blood cells (RBCs). The data set can be described thus: Fluorescence of rotor in healthy and glutaraldehyde-stiffened red blood cells (confocal / epi-fluorescence microscopy). Format: cell-based. The conditions noted are these: glutaraldehyde 0-2% per volume of cells; 0.4 mM rotor, 1 hour; excitation 488 nm, detection 565-625 nm. The method, then: FIG. 6: Left: Suspension of healthy red blood cells and red blood cells stiffened with glutaraldehyde, in a PBS solution, using confocal microscopy (×40 objective, excitation at 488 nm, detection between 542-626 nm). The molecular rotor tDASMP was introduced into the solution according the protocol described in Example 2.
As a next step towards the rheological characterization of RBCs with MRs, we then imaged a suspension of healthy and artificially rigidified RBCs (by incubation during 10 min in a 1% (v/v) Glutaraldehyde solution in PBS) treated with tDASMP. […] Confocal microscopy allows to measure fluorescence profiles across RBCs.
In a second step, a quantification of the fluorescence response as a function of the degree of rigidification of RBCs can be performed. […]
For visualization, samples were placed between a glass slide and coverslip separated by a 250 μm spacer and initially incubated in a PBS solution supplemented with 1% BSA (Bovine Serum Albumin, Sigma-Aldrich) to prevent RBC adhesion. Observation was made with a Leica microscope in epi-fluorescence mode with excitation at 488 nm and detection at 565-625 nm. Images recorded with a sCMOS fast camera (OrcaFlash4.0 v2+, Hamamatsu Photonics France S.A.R.L., Massy, France) allowed to measure the mean fluorescence intensity of RBCs rescaled by the background fluorescence level.

Data set [5] is described as follows: Fluorescence intensity as a function of viscosity (Förster-Hoffmann equation). The data set is classed as physicochemical. The method, then: FIGS. 10a-10b: Emission peak intensity (fluorescence microscopy, excitation at 488 nm, emission 595±30 nm) of the molecular rotor DASPI at concentration 0.01 mM, 0.1 mM, 1 mM in (left) ethylene glycol/glycerol solutions and (right) aqueous glycerol solutions with increasing viscosity. The solutions temperature was fixed at T=X ° C. The fluorescence intensity increases with the solution viscosity according to the Förster-Hoffmann equation log φ=C+b log η, with solvent-dependent parameters b and C; Ethylene glycol/glycerol solutions: C=94,641,2206± and b=0.69±0.01 and aqueous glycerol solutions: C=74,344,1590± and b=0.70±0.01.
as §1, §2
The second step was to assess the sensitivity of DASPI to the local viscosity of the surrounding medium. More generally, fluorescent MRs photophysical sensitivity depends on their interaction with the environment, characterized by viscosity, polarity and solubility. […] Here we have investigated the DASPI emission intensity (fluorescence microscopy, excitation at 488 nm, emission at 595±30 nm) in ethylene glycol/glycerol solutions (viscosity between 10-200 mPa·s) and aqueous solutions of glycerol (viscosity between 2-200 mPa·s). In each solution, the relative concentration of both solvents was varied to adjust the viscosity of the resulting mixture, at temperature T=X° C. The viscosity was measured in situ by microrheology measurements, just before fluorescence intensity measurements. […]

Structures are written as SMILES. Several values for one entry are separate records, joined by “and”; a condition that tells them apart may be missing. Equal entries are not always repeated.

`CN(C)c1ccc(C=Cc2cc[n+](C)cc2)cc1.[I-]` [tDASMP, trans-4-[4-(Dimethylamino)styryl]-1-methylpyridinium iodide]: the “fluorescence emission intensity versus viscosity of hemoglobin solutions” value at hemoglobin solutions is on record as “increase in fluorescence emission intensity”. Moreover, in data set [1], the “dependency of fluorescence intensity on NaCl concentration (ionic strength)” value (“dependency … (ionic strength)” below) is “no significant dependency” and the “dependency of fluorescence intensity on pH” value (from here on “dependency … on pH”) was “no significant dependency”. Further, the fluorescence excitation peak result in data set [2] (DMSO, ethylene glycol, glycerol, hemoglobin/PBS, 25 °C, 3.3 μM) was “around 480 nm”. Moreover, in data set [2] (hemoglobin in PBS, 1000× dilution), the “interference of excitation-emission spectrum with hemoglobin fluorescence” value is on record as “does not interfere with the intrinsic hemoglobin fluorescent spectrum”. In addition, in data set [2] (rotor of Examples 1-2), the emission is reported as 580-620 nm and the excitation peak result is “around 490 nm”. For the same compound, in the data set with red blood cells (RBCs) [3], the “distribution of the rotor inside RBCs” value is “uniformly distributed throughout the volume of RBCs”; the “penetration of the rotor into RBCs” value was “able to cross the membrane and penetrate within the RBCs”. Besides, the “penetration of the rotor into RBCs” value in the data set on red blood cells (RBCs) [3] (listed as DASPI) was “spontaneously penetrates into red blood cells”. The “mean fluorescence intensity of RBCs versus RBC rigidity” value in the data set on red blood cells (RBCs) [4] was “increasing function of RBC rigidity”. Further, the Förster-Hoffmann exponent b in data set [5] (aqueous glycerol solutions, excitation 488 nm, emission 595±30 nm) is reported as 0.70±0.01. Besides, the Förster-Hoffmann exponent b result in data set [5] (both ethylene glycol/glycerol and glycerol/water solutions) is on record as “around 0.7”. Moreover, the Förster-Hoffmann exponent b in data set [5] (ethylene glycol/glycerol solutions, excitation 488 nm, emission 595±30 nm) is 0.69±0.01.

Consider `Cc1ccc2c(c1)sc(-c1ccc(N(C)C)cc1)[n+]2C.[Cl-]` [Tht, Thioflavine T], for which, in data set [1], the “dependency … (ionic strength)” value is on record as “no significant dependency” and the “dependency … on pH” value is reported as “no significant dependency”. In addition, the excitation/emission peaks result in data set [2] (water/glycerol solution, rotor 15 μM) was “around 380/440 and 430/490”. The “excitation/emission peak following the Förster-Hoffmann equation” value in data set [5] (water-glycerol solutions, viscosity 1-200 mPa·s) is given as 430/490.

As to `N#C/C(=C\c1cc2c3c(c1)CCCN3CCC2)C(=O)O` [CCVJ, Carboxycyanovinyl-Julolidine], in data set [1], the “dependency … (ionic strength)” value is reported as “no significant dependency” and the “dependency … on pH” value is “no significant dependency”.

For `N#CC(C#N)=Cc1cc2c3c(c1)CCCN3CCC2` [DCVJ, Dicyanovinyl-Julolidine], in data set [1], the “dependency … (ionic strength)” value is reported as “no significant dependency” and the “dependency … on pH” value was “no significant dependency”.
